ChEMBL document CHEMBL1201862, “PubChem BioAssay data set” (2004)
The source made the active and inactive calls.

Assays:
[1] = Vero E6 cell cytotoxicity, dose response, cytotoxicity control for non-replicating M. tuberculosis project, secondary assay (AID 492998); type: functional, VeroE6; settings: Vero C1008
[2] = biological target: Peroxisome proliferator-activated receptor gamma/Nuclear receptor coactivator 3 (Homo sapiens, UniProt P37231); type: functional;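 further: agonist potency for raising coactivator recruitment to the receptor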
[3] = HeLa cell cytotoxicity, dose response, cytotoxicity control for MgcRacGAP inhibitor project (AID 624300); type: functional
[4] = biological target: Peroxisome proliferator-activated receptor gamma/Nuclear receptor coactivator 1 (Homo sapiens, UniProt P37231); type: functional;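 further: agonist potency as compounds enhance coactivator SRC-1 recruitment to PPARgamma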
[5] = biological target: T1, Rac GTPase-activating protein 1 (Homo sapiens, UniProt Q9H0H5); experiment: MgcRacGAP GTPase-activating activity inhibitors, confirmation, biochemical, ADP Hunter fluorescence, primary and confirmatory (AID 624330); type: functional
T1 sequence (Q9H0H5 whole entry): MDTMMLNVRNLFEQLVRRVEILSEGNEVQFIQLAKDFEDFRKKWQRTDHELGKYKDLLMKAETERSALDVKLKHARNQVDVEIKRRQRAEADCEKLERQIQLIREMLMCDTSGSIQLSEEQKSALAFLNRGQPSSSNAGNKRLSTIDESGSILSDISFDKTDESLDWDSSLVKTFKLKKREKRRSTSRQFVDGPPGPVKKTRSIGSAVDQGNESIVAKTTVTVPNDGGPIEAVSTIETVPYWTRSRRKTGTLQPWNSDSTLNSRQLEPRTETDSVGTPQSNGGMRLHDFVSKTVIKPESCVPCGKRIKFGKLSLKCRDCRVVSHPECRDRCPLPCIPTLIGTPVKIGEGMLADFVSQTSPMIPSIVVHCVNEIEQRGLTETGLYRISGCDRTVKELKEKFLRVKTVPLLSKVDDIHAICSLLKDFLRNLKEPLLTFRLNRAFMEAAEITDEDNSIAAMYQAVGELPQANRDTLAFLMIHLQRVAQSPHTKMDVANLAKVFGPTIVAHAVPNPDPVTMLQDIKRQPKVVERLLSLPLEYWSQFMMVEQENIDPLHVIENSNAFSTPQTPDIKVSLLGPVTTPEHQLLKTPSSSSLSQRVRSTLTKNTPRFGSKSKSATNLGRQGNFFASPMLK

Nonstructural protein 1 = Nonstructural protein 1 (Influenza A virus, UniProt Q194T2); type: functional, Influenza A virus (A/California/07/2009(H1N1))
Cytochrome P450 3A4 = Cytochrome P450 3A4 (Homo sapiens, UniProt P08684);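 further: CYP3A4 tested as one member of a cytochrome P450 panel screen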
[6] = biological target: Peroxisome proliferator-activated receptor gamma/Nuclear receptor coactivator 2 (Homo sapiens, UniProt P37231); type: functional;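 further: agonist potency for raising coactivator recruitment to the receptor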
H9c2 = experiment: cells; type: functional, cell-based; settings: Rattus norvegicus, H9c2, Myocardium;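 further: confirmatory concentration-response retest of ultra-high-throughput screening hits for modulation of myocardial damage; cell death induced by hydrogen peroxide oxidative stress; compound pretreatment for 60 min then peroxide exposure for 2 h; potency is for protecting the cells against peroxide damage rather than for killing them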
[7] = A549 cell cytotoxicity, dose response, cytotoxicity control, plate reader, cherry-pick, antagonist series (AID 743412); type: functional, cell-based
[8] = P. falciparum 3D7-ScDHODH growth inhibitors, dose response, SYBR Green, dry powder samples (AID 1159570); type: functional, cell-based;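 further: parasite growth measured after 72 hours of compound exposure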
[9] = P. falciparum Dd2 growth inhibitors, dose response, SYBR Green, dry powder samples (AID 1159566); type: functional, cell-based;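 further: potency for growth inhibition with lower SYBR green DNA signal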
[10] = P. falciparum Dd2 growth inhibitors, dose response, SYBR Green, cherry-picked samples (AID 1159567); type: functional, cell-based
[11] = P. falciparum ATP4 D1247Y mutant growth inhibitors, dose response, NITD609-resistant line, SYBR Green, dry powder (AID 1159571); type: functional, cell-based;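 further: parasites synchronized at ring stage by sorbitol before testing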
Leucine aminopeptidase = biological target: T2, Leucine aminopeptidase (Plasmodium falciparum 3D7, UniProt Q8IL11); experiment: P. falciparum M17LAP inhibitors, primary screen, biochemical, fluorogenic H-Leu-NHMec substrate, 1536-well (AID 1619); type: functional
T2 sequence (Q8IL11 whole entry): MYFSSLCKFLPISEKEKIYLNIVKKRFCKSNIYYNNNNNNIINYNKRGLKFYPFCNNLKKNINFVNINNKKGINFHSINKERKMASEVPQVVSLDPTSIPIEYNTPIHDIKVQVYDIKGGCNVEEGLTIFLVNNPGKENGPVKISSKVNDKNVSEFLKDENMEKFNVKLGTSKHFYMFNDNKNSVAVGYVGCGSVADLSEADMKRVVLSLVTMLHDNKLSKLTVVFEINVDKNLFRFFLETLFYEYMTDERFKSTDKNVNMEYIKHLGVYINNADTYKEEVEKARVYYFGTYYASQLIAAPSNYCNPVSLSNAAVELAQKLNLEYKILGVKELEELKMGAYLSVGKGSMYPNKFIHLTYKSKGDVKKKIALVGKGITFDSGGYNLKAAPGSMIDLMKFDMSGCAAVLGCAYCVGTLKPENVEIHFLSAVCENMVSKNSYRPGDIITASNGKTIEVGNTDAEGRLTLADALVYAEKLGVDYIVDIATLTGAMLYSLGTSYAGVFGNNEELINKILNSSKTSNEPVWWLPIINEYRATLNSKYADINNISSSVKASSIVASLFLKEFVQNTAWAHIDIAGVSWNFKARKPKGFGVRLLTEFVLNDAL

Protein RecA = biological target: T3, Protein RecA (Mycobacterium tuberculosis, UniProt P9WHJ3); experiment: Fluorescence Cell-Free Homogeneous Dose Retest to Identify Inhibitors of RecA-Intein Splicing Activity. [Related pubchem assays (depositor defined):AID2097, AID2223, AID489010, AID492950]; type: functional
T3 sequence (P9WHJ3 whole entry): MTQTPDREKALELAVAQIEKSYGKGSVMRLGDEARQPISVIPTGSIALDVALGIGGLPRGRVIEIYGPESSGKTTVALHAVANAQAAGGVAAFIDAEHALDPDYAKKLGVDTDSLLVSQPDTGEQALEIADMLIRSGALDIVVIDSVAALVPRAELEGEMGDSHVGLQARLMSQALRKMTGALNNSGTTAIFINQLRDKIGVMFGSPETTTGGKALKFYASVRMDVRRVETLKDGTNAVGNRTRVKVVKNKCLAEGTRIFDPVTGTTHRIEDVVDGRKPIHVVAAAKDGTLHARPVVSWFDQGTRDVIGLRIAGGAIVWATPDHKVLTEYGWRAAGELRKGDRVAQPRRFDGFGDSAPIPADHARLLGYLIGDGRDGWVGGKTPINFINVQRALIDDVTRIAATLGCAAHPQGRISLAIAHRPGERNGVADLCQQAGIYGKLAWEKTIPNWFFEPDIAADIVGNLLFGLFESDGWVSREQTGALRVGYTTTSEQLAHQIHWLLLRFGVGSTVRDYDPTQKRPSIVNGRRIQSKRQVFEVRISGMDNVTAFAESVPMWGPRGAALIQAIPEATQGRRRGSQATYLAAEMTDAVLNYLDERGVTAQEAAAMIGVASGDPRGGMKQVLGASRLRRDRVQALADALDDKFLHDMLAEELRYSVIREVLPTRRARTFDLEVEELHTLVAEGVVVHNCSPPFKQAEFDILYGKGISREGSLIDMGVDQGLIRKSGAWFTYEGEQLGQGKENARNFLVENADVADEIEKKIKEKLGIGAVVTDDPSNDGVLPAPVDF

[12] = biological target: T4, Replicative DNA helicase DnaB (Mycobacterium tuberculosis, UniProt P9WMR3); experiment: DnaB intein splicing inhibitors, dose response, biochemical, cell-free fluorescence (AID 449749); type: functional
T4 sequence (P9WMR3 whole entry): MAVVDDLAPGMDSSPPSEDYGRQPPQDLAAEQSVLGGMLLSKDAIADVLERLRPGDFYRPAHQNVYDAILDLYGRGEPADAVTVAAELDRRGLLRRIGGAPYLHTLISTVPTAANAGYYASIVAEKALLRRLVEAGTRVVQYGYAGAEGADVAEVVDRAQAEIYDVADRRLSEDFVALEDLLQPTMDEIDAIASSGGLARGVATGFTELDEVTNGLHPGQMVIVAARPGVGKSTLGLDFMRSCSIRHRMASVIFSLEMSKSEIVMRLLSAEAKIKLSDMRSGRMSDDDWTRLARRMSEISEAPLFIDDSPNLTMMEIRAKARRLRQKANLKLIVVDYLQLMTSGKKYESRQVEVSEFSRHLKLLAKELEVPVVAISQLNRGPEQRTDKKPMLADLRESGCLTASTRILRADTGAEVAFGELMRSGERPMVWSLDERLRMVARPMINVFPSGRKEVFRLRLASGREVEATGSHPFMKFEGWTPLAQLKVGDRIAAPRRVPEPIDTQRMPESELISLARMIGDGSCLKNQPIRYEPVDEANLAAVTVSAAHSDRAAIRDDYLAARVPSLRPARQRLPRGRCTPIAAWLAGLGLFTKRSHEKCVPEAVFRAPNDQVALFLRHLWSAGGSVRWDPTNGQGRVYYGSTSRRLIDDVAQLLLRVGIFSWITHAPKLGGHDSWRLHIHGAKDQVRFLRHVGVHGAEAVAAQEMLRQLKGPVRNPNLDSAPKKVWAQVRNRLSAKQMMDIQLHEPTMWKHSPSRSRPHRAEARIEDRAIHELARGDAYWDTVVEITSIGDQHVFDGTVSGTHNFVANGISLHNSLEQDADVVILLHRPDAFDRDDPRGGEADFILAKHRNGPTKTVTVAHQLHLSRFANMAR

[13] = biological target: Glucose-6-phosphate 1-dehydrogenase (Homo sapiens, UniProt P11413); experiment: human G6PD enzyme inhibitors, dose response, selectivity assay for P. falciparum G6PD inhibitor project, biochemical, fluorescence (AID 504792); type: functional
HEK293 = experiment: inhibitors of LMP1-driven NF-kB reporter, dose response, cell-based, HEK293, luciferase, cherry-pick (AID 588343); type: functional; settings: Homo sapiens
[14] = biological target: T5, Histone-lysine N-methyltransferase NSD2 (Homo sapiens, UniProt O96028); type: biochemical
T5 sequence (O96028 whole entry): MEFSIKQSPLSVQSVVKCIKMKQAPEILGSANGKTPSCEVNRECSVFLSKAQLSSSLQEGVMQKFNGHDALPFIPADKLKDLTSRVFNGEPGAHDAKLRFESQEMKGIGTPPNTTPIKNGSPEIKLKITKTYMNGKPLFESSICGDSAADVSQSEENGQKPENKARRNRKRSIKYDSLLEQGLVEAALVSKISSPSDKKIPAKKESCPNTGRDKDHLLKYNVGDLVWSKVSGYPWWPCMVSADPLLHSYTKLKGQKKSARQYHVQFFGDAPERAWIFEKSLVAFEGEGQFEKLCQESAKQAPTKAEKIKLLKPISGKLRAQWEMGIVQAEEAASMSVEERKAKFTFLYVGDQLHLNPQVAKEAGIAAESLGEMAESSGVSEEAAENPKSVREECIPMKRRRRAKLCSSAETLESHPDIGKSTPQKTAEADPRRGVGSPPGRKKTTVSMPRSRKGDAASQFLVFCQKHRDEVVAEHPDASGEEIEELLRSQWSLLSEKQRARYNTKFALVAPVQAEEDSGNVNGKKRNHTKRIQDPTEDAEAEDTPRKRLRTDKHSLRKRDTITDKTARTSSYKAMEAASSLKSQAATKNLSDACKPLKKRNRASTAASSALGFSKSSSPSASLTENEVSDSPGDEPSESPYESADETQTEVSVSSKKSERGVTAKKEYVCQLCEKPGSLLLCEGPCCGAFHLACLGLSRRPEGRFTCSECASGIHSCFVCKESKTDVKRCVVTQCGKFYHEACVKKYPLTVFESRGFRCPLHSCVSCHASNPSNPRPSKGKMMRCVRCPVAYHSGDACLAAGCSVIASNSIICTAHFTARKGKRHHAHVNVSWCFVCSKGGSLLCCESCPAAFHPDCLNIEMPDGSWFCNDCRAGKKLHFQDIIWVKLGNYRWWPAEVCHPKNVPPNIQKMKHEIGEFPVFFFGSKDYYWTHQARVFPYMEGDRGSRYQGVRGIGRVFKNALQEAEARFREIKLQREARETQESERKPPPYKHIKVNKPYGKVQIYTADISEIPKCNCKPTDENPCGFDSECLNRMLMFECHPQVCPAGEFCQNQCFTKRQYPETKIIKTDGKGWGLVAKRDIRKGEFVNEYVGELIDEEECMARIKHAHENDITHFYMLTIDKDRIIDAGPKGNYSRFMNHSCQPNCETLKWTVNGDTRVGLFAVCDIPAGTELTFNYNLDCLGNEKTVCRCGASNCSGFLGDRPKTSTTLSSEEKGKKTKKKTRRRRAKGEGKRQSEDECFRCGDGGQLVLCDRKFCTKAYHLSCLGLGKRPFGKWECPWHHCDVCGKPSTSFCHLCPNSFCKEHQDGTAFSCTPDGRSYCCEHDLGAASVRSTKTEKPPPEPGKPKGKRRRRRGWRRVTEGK

Sequence of Nonstructural protein 1 (Q194T2 whole entry): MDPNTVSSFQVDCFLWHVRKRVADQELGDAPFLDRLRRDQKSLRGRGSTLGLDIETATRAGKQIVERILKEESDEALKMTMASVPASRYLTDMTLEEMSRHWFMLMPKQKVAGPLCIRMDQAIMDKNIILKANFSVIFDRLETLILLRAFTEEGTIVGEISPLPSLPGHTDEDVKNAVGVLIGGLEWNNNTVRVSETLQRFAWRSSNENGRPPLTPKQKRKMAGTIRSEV
Sequence of Glucose-6-phosphate 1-dehydrogenase (P11413 whole entry): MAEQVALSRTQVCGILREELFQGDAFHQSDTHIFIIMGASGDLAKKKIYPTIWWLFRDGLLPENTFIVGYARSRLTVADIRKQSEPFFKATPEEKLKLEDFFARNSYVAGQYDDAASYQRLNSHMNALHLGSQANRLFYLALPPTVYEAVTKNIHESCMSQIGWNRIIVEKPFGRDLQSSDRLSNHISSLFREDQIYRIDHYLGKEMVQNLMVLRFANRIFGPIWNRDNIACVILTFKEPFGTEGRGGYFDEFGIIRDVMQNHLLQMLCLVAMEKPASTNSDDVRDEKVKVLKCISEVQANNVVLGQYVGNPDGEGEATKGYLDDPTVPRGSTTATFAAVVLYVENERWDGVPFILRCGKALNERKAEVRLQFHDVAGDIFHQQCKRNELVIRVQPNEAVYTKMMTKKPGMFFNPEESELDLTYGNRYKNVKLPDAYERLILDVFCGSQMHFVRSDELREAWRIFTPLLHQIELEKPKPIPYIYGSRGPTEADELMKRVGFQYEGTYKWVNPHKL
Sequence of Peroxisome proliferator-activated receptor gamma/Nuclear receptor coactivator 2 (P37231 whole entry): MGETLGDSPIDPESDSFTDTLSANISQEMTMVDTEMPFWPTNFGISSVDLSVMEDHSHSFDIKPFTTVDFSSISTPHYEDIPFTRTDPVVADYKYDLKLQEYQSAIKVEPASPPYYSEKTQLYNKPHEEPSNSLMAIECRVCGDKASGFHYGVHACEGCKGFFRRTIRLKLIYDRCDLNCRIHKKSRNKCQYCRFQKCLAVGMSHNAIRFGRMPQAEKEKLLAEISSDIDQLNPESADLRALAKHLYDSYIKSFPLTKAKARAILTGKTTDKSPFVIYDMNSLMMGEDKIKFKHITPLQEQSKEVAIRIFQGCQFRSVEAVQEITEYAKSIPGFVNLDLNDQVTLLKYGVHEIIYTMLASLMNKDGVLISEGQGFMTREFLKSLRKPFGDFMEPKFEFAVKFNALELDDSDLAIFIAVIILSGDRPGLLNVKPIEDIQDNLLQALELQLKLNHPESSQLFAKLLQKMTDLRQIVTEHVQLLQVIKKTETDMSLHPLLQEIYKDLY
Sequence of Peroxisome proliferator-activated receptor gamma/Nuclear receptor coactivator 2 (Q15596 whole entry, further chain): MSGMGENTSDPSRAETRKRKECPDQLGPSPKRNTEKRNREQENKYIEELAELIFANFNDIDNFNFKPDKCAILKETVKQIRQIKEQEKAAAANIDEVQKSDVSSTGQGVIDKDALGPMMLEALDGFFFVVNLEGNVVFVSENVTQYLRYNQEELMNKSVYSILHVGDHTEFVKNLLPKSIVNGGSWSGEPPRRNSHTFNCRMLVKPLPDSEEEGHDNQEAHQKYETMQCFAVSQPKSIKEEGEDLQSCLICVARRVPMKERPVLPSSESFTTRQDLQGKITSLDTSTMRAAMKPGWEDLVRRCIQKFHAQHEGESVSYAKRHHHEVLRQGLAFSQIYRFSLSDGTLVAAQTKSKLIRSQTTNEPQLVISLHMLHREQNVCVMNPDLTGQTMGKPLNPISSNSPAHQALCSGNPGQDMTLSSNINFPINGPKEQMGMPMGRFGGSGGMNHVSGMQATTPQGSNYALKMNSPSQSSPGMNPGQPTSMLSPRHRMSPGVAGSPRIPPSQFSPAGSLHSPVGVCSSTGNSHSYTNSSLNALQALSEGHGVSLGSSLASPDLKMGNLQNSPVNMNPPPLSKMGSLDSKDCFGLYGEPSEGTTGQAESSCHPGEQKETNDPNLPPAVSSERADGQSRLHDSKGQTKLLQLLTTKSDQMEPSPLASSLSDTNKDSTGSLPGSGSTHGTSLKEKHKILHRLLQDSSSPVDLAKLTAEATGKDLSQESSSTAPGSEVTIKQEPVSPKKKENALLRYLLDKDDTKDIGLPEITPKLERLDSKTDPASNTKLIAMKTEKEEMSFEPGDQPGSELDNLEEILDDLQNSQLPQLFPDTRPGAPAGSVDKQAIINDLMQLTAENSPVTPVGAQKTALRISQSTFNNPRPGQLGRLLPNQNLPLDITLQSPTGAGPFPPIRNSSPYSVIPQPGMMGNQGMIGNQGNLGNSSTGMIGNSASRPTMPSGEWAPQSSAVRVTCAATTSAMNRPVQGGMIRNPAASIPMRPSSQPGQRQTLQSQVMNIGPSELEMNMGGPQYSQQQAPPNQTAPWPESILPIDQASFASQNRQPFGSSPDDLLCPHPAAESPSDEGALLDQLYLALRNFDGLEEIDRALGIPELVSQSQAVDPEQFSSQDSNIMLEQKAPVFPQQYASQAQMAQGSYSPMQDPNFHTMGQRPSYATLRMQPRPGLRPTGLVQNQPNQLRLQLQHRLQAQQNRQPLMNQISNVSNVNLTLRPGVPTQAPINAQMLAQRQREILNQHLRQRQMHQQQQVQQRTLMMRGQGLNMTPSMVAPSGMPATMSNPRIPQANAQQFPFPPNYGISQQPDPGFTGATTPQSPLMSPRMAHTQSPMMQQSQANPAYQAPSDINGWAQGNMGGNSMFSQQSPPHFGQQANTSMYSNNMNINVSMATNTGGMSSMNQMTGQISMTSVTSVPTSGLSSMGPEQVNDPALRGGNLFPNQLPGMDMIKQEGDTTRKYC
Sequence of Peroxisome proliferator-activated receptor gamma/Nuclear receptor coactivator 3 (P37231 whole entry): as the sequence (P37231 whole entry) above
Sequence of Peroxisome proliferator-activated receptor gamma/Nuclear receptor coactivator 3 (Q9Y6Q9 whole entry, further chain): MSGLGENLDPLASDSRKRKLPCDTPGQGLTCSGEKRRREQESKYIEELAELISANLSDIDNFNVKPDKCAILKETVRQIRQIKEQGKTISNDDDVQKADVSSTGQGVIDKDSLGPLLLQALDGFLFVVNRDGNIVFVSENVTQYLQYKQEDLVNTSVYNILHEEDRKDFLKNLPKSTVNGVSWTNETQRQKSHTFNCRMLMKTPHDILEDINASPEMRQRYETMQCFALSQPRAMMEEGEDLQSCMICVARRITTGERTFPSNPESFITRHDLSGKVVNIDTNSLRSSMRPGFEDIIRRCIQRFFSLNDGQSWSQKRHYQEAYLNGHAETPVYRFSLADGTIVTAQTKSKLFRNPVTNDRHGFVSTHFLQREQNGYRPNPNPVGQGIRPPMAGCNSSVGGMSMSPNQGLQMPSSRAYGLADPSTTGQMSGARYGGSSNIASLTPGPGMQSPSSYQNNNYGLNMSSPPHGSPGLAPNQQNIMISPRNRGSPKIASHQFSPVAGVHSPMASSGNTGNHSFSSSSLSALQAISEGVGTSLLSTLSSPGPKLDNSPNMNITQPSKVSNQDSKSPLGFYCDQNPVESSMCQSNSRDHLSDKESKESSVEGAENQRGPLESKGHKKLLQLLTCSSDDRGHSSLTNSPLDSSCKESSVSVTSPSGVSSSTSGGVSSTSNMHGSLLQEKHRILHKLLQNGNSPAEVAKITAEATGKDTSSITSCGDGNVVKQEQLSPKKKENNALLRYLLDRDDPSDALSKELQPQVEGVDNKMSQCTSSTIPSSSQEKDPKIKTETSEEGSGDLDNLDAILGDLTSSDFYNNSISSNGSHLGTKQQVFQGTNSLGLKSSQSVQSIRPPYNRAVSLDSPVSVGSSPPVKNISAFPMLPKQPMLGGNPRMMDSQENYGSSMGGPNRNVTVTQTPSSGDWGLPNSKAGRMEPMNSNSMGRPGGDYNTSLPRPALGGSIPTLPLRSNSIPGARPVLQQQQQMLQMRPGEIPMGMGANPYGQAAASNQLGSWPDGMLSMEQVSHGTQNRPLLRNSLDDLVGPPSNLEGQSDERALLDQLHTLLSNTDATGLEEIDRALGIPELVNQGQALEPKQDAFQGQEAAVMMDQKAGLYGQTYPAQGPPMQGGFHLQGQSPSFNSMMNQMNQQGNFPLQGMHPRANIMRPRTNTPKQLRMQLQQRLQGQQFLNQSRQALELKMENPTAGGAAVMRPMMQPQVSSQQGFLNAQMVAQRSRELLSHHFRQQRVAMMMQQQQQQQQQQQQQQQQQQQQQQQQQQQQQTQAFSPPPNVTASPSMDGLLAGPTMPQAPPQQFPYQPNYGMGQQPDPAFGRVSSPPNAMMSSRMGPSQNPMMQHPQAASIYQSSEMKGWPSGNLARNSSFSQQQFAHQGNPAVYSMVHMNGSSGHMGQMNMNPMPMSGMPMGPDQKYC

CC(C)(C)c1ccc(C(=O)N2CCCC2)s1
CC50 [1]: > 20 µM (active)

CN(C)c1ccc(/N=C/C=C2\N(C)c3ccccc3C2(C)C)cc1
EC50 [2]: > 79.4 µM (not active)
CC50 [3]: 100 µM (active)
EC50 [4]: > 79.4 µM (not active)
IC50 [5]: 12.2 µM (active)
IC50 (Nonstructural protein 1): 13.8 µM (active)
AC50 (Cytochrome P450 3A4): 15.8 µM (inconclusive)
EC50 [6]: > 79.4 µM (not active)

COc1c(O)cccc1/C=N/NC(=O)Cn1ccnc1C
IC50 (H9c2): > 79 µM (inactive)
IC50 (Nonstructural protein 1): 20.4 µM (active)

Cn1nnnc1SCC(=O)N1CCN(C(=O)c2ccco2)CC1
AC50 [7]: > 52 µM (inactive)

COc1cccc(CN2CC3(CCN(Cc4ccccn4)CC3)c3c([nH]c4cc(OC)ccc34)[C@@H]2CO)c1
AC50 [8]: 1.71 µM (active)
AC50 [9]: 1.79 µM (active)
AC50 [10]: 1.96 µM (active)
AC50 [11]: 2.04 µM (active)

Cc1ccc(C(=O)CSc2nnc[nH]2)cc1
IC50 (Leucine aminopeptidase): 50.5 µM (active)

Cc1c(Cl)cccc1NC(=O)CSCc1cc(=O)[nH][nH]1
EC50 (Protein RecA): > 380 µM (inconclusive)
AC50 [12]: > 380 µM (inactive)
IC50 (Leucine aminopeptidase): 62.3 µM (active)

COc1cc(CNCCc2ccc3c(c2)OCO3)cc(OC)c1OC
CC50 [3]: 100 µM (active)
IC50 [5]: 127 µM (active)

O=C1C(C2=NC(C(=O)O)C3C(=O)N(c4ccc(Cl)cc4)C(=O)C23)=C(O)c2ccccc21 (centres undefined)
IC50 (Leucine aminopeptidase): 71.6 µM (active)

Cc1[nH]c2ccccc2c1/C=N/Nc1nncn1N
IC50 [5]: 63.7 µM (active)
IC50 [13]: 44.1 µM (inactive)

COc1ccc(C(c2c(C)n(C)n(-c3ccccc3)c2=O)c2c(C)n(C)n(-c3ccccc3)c2=O)c(OC)c1OC
AC50 (HEK293): 344 µM (active)

CCOC(=O)c1ccc(N2N=C(C)/C(=C/C=C/c3ccco3)C2=O)cc1
IC50 (Nonstructural protein 1): > 100 µM (active)

Cc1cc(SCC(=O)c2ccc(O)c(O)c2)nc2ccccc12
CC50 [3]: 100 µM (active)
AC50 [14]: 6.7 µM (active)
IC50 [5]: 58.2 µM (active)
